The target of experiment [1] is T1, human NTCP (Homo sapiens, UniProt Q14973).
T1 sequence (Q14973 1-349): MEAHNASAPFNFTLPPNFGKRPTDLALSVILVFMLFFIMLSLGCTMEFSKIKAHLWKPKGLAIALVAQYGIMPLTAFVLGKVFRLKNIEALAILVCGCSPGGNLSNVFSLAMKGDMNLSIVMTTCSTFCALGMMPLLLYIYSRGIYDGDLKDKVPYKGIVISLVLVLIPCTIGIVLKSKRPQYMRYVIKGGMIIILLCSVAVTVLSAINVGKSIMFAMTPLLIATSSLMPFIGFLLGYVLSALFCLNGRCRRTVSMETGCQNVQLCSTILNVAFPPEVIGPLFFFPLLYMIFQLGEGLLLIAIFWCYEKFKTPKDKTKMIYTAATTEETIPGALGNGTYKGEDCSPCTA
As to the kind of experiment: Screening fluorescent competitive Myrcludex B-FITC binding assay (96-well, 10 µM drug).

Experiment [2] has as its target T1, human NTCP. The experiment in a line: Screening taurocholate uptake assay (96-well, [14C]taurocholate, 10 µM drug).
Setting [3] is: Prestwick library screen, 10 µM drug, B-score of Myrcludex B-FITC binding.
Where [4] appears, read: Prestwick library screen, 10 µM drug, B-score of taurocholate uptake.
Setting [5] is: combined ranking from functional and binding assay B-scores.
[6] abbreviates: Prestwick library screen, Myrcludex B-FITC binding, 10 µM drug.
Where [7] appears, read: Prestwick library screen, taurocholate uptake, 10 µM drug.
[8] abbreviates: ranking score beside the functional and binding assay B-scores of the screen.
The mark [9] stands for this setting: screen, 10 µM drug, Myrcludex B-FITC binding.
[10] abbreviates: combined ranking from functional and binding screening assays.
[11] abbreviates: screen, 10 µM drug, taurocholate uptake.

Structures can show the parent of a compound that is named as a salt. Where two headings read alike, the source gives them in different places.

In experiment [1] (setting [3]), `O=C([O-])[C@H]1/C(=C/CO)O[C@@H]2CC(=O)N21.[K+]` [Clavulanate potassium salt] displayed a B-score binding assay of 2.079. In addition, the B-score functional assay in experiment [2] (setting [4]) is recorded as 0.008. Further, in experiment [2] (setting [5]), the Ranking score turned out to be 886.007.

As to `CN(C)[C@@H]1C(O)=C(C(N)=O)C(=O)[C@@]2(O)C(O)=C3C(=O)c4c(O)ccc(Cl)c4[C@@H](O)[C@H]3C[C@@H]12` [Demeclocycline hydrochloride], in experiment [1] (setting [6]), the B-score binding assay was found to be 0.096. In experiment [2] (setting [7]), the B-score functional assay is listed as 0.083. Moreover, the Ranking score in experiment [2] (setting [8]) stood at 738.496.

For the compound `CCN(CCCc1ccccc1)CCCc1ccccc1.O=C(O)CC(O)(CC(=O)O)C(=O)O` [Alverine citrate salt], the B-score binding assay in experiment [1] (setting [9]) was -0.052. Further, in experiment [2] (setting [10]), the Ranking score was 318.591. Also, the B-score functional assay in experiment [2] (setting [11]) is given as -1.552.

On to `C=CC(N)CCC(=O)O` (stereo not drawn) [Vigabatrin], for which the B-score binding assay in experiment [1] (setting [6]) is recorded as 0.671. Also, in experiment [2] (setting [7]), the B-score functional assay was -0.08. For the same compound, in experiment [2] (setting [8]), the Ranking score is recorded as 730.208.

As for `CC(=O)Oc1cc(C(C)C)c(OCCN(C)C)cc1C.Cl` [Moxisylyte hydrochoride], the B-score binding assay in experiment [1] (setting [9]) is given as -0.183. Moreover, the Ranking score in experiment [2] (setting [10]) amounted to 375.319. Moreover, the B-score functional assay in experiment [2] (setting [11]) was -0.84.

Consider `N[C@@H]1C[C@H]1c1ccccc1` [Tranylcypromine hydrochloride], for which, in experiment [1], the B-score binding assay came to 1.095. In experiment [2], the B-score functional assay turned out to be 0.857 and the Ranking score amounted to 1041.86.

As to `CO[C@@H]1[C@@H](O[C@@H]2O[C@H](C)[C@@H](O[C@H]3C[C@@](C)(O)[C@@H](OC(=O)CC(C)C)[C@H](C)O3)[C@H](N(C)C)[C@H]2O)[C@@H](CC=O)C[C@@H](C)[C@@H](O)/C=C/C=C/C[C@@H](C)OC(=O)C[C@H]1OC(C)=O` [Josamycin], the B-score binding assay in experiment [1] (setting [6]) is listed as -0.039. In addition, the B-score functional assay in experiment [2] (setting [7]) was 0.552. This compound showed a Ranking score in experiment [2] (setting [8]) of 744.048.

Take `CN(c1nccc(=O)[nH]1)C1CCN(c2nc3ccccc3n2Cc2ccc(F)cc2)CC1` [Mizolastine]: in experiment [1] (setting [3]), the B-score binding assay was 0.089. Besides, in experiment [2] (setting [4]), the B-score functional assay amounted to 0.906. Moreover, the Ranking score in experiment [2] (setting [5]) stood at 877.518.

`CC(=O)[C@H]1CC[C@H]2[C@@H]3CC=C4C[C@@H](O)CC[C@]4(C)[C@H]3CC[C@]12C` [Pregnenolone] gave a B-score binding assay in experiment [1] (setting [9]) of 0.35. The Ranking score in experiment [2] (setting [10]) came to 297.104. Moreover, in experiment [2] (setting [11]), the B-score functional assay was -2.394.

Take `COc1ncnc(NS(=O)(=O)c2ccc(N)cc2)c1OC` [Sulfadoxine]: the B-score binding assay in experiment [1] (setting [3]) worked out at 0.336. The B-score functional assay in experiment [2] (setting [4]) is listed as 0.522. In experiment [2] (setting [5]), the Ranking score was found to be 887.31.

With `CCC1NC(=O)c2cc(S(N)(=O)=O)c(Cl)cc2N1` (stereo not drawn) [Quinethazone], the B-score binding assay in experiment [1] (setting [6]) is given as -0.124. Moreover, the B-score functional assay in experiment [2] (setting [7]) amounted to 1.708. Also, the Ranking score in experiment [2] (setting [8]) is on record as 787.128.

`CCCC(C)C1(CC)C(=O)NC(=O)NC1=O` (stereo not drawn) [Pentobarbital] yielded a B-score binding assay in experiment [1] of 1.244. In experiment [2], the B-score functional assay was -0.299 and the Ranking score turned out to be 697.378.

In turn, `Cc1ncc([N+](=O)[O-])n1CCO` [Metronidazole] showed a B-score binding assay in experiment [1] (setting [3]) of 0. The compound further came in with a B-score functional assay in experiment [2] (setting [4]) of 1.996. Moreover, the Ranking score in experiment [2] (setting [5]) is on record as 878.042.

In turn, `CC(C)NC[C@@H](O)COc1cccc2ccccc12.Cl` [(R)-Propranolol hydrochloride] yielded a B-score binding assay in experiment [1] of 0.252. In experiment [2], this compound yielded a B-score functional assay of 1.016 and a Ranking score of 935.855.

Take `Nc1nc(=O)c2nc(CNc3ccc(C(=O)N[C@@H](CCC(=O)O)C(=O)O)cc3)cnc2[nH]1` [Folic acid]: the B-score binding assay in experiment [1] (setting [9]) is -0.117. Further, in experiment [2] (setting [10]), the Ranking score was 436.211. Also, the B-score functional assay in experiment [2] (setting [11]) is reported as -0.57.

As to `Cc1nnc(SCC2=C(C(=O)O)N3C(=O)[C@@H](NC(=O)Cn4cnnn4)[C@H]3SC2)s1` [Cefazolin sodium salt], the B-score binding assay in experiment [1] (setting [6]) was found to be 0.04. Besides, the B-score functional assay in experiment [2] (setting [7]) worked out at 0.093. Moreover, the Ranking score in experiment [2] (setting [8]) is 718.895.

As to `Cc1cc2cc3c(C)cc(=O)oc3c(C)c2o1` [Trioxsalen], in experiment [1] (setting [3]), the B-score binding assay was determined as 1.537. Moreover, in experiment [2] (setting [4]), the B-score functional assay amounted to 0.56. Further, the Ranking score in experiment [2] (setting [5]) is given as 1035.49.

As to `O=c1[nH]c(=O)n([C@H]2C[C@H](O)[C@@H](CO)O2)cc1C(F)(F)F` [Trifluridine], the B-score binding assay in experiment [1] (setting [3]) came to 2.847. Also, the B-score functional assay in experiment [2] (setting [4]) was found to be 0.173. Besides, the Ranking score in experiment [2] (setting [5]) was 994.589.

The compound `Fc1ccc([C@@H]2CCNC[C@H]2COc2ccc3c(c2)OCO3)cc1` [Paroxetine Hydrochloride] had a B-score binding assay in experiment [1] (setting [3]) of 1.07. In experiment [2] (setting [4]), this compound showed a B-score functional assay of 0.185. Moreover, the Ranking score in experiment [2] (setting [5]) is 918.273.

Turning to `CC(O)(P(=O)([O-])O)P(=O)([O-])O.[Na+].[Na+]` [Etidronic acid, disodium salt], the B-score binding assay in experiment [1] (setting [6]) is given as 0.806. The B-score functional assay in experiment [2] (setting [7]) is listed as -0.023. Moreover, in experiment [2] (setting [8]), the Ranking score worked out at 776.081.

On to `CCCNC(C)(C)COC(=O)c1ccccc1` [Meprylcaine hydrochloride], for which the B-score binding assay in experiment [1] (setting [9]) is listed as -1.608. Also, in experiment [2] (setting [10]), the Ranking score amounted to 382.481. In addition, the B-score functional assay in experiment [2] (setting [11]) came to 0.763.

As for `CNCCCC1c2ccccc2C=Cc2ccccc21` [Protriptyline hydrochloride], the B-score binding assay in experiment [1] (setting [9]) is recorded as -0.431. In experiment [2] (setting [10]), the Ranking score stood at 390.896. Moreover, the B-score functional assay in experiment [2] (setting [11]) is on record as -0.483.

As to `NC(=O)c1cccnc1` [Nicotinamide], the B-score binding assay in experiment [1] (setting [3]) was 0.079. Also, the B-score functional assay in experiment [2] (setting [4]) was 1.452. In addition, in experiment [2] (setting [5]), the Ranking score came to 911.172.

As for `CC(C(=O)O)c1ccc(N2Cc3ccccc3C2=O)cc1` (stereo not drawn) [Indoprofen], in experiment [1] (setting [3]), the B-score binding assay was found to be 0.209. Also, the B-score functional assay in experiment [2] (setting [4]) was 0.788. In experiment [2] (setting [5]), the Ranking score is listed as 897.998.

For `Cl.Cl.Cl.Cl.Cl.NCCNCCNCCNCCN`, the B-score binding assay in experiment [1] (setting [6]) is on record as 0.678. The B-score functional assay in experiment [2] (setting [7]) is -0.035. This compound also had a Ranking score in experiment [2] (setting [8]) of 758.136.

`CC(=O)N[C@@H](CC(=O)N[C@@H](CCC(=O)O)C(=O)O)C(=O)O` [Spaglumic acid]: in experiment [1] (setting [9]), the B-score binding assay is -0.793. Besides, the Ranking score in experiment [2] (setting [10]) came out at 411.514. For the same compound, the B-score functional assay in experiment [2] (setting [11]) is on record as -0.043.

`C[C@]12CC[C@H](O)C[C@H]1CC[C@@H]1[C@@H]2CC[C@]2(C)[C@@H](C3=CC(=O)OC3)CC[C@]12O` [Digitoxigenin] returned a B-score binding assay in experiment [1] (setting [9]) of 1.274. For the same compound, the Ranking score in experiment [2] (setting [10]) was 348.633. Besides, in experiment [2] (setting [11]), the B-score functional assay is -2.282.

As to `CC(CNC1CCCCC1)OC(=O)c1ccccc1` (stereo not drawn) [Hexylcaine hydrochloride], in experiment [1] (setting [9]), the B-score binding assay was -1.021. In experiment [2] (setting [10]), the Ranking score came out at 435.325. The compound also gave a B-score functional assay in experiment [2] (setting [11]) of 0.196.

Take `O=C(Nc1ccccc1)OCC(CN1CCCCC1)OC(=O)Nc1ccccc1` (stereo not drawn) [Diperodon hydrochloride]: in experiment [1] (setting [6]), the B-score binding assay is on record as 0.002. Moreover, in experiment [2] (setting [7]), the B-score functional assay was 0.512. The compound also showed a Ranking score in experiment [2] (setting [8]) of 772.884.

(Values after paper PMC5681660, “Reduced hepatitis B and D viral entry using clinically applied drugs as novel inhibitors of the bile acid transporter NTCP” (Scientific Reports, 2017).)
